Measurements from patent US20100190105A1, “LITHOGRAPHIC PRINTING PLATE PRECURSOR” (Agfa Graphics NV, priority 2007, published 2010).

assay: Absorption maximum of asymmetric sensitizers; format: physicochemical
Source text: The asymmetric sensitizers AS-02, AS-03, AS-04 and AS-05 were obtained using a similar preparation method. The asymmetric sensitizers AS-01 to AS-05 are given in Table 2 together with their absorption maximum (Abs.Max (nm)) and their melting point (° C.).

First: CCCCC(CC)COc1c(OC)cc(/C=C/c2ccc(/C=C/c3cc(OC)c(OC(C)CC)c(OC)c3)cc2)cc1OC (centres unmarked) [AS-01]
Second: CCC(C)Oc1c(OC)cc(/C=C/c2ccc(/C=C/c3cc(OC)c(OC(CC)CC)c(OC)c3)cc2)cc1OC (centres unmarked) [AS-02]
The “Abs. Max” value of the first is higher: 371 nm for the first, 370 nm for the second.

`CCC(C)Oc1c(OC)cc(/C=C/c2ccc(/C=C/c3cc(OC)c(OC4CCCCC4)c(OC)c3)cc2)cc1OC` (centres unmarked) [AS-03] and `CCC(C)Oc1c(OC)cc(/C=C/c2ccc(/C=C/c3cc(OC)c(OC4CCCC4)c(OC)c3)cc2)cc1OC` (centres unmarked) [AS-04] are the same in “Abs. Max” value: 371 nm for the first, 371 nm for the second.

With `CCC(C)Oc1c(OC)cc(/C=C/c2ccc(/C=C/c3cc(OC)c(OCCO)c(OC)c3)cc2)cc1OC` (centres unmarked) [AS-05] the “Abs. Max” value was 371 nm.
